# Experimental data: US20110160280A1, “CANCER-RELATED GENES, CDCA5, EPHA7, STK31 AND WDHD1” (Oncotherapy Science, Inc., priority 2007, published 2011)
# Key:
# EPHA7 [1] = experiment: RNA interference assay: EPHA7 expression by semiquantitative RT-PCR; assay type: cell-based, human; conditions: NCI-H520 and SBC-5 cells; versus control siRNAs (LUC, SCR)
# Protocol: (§1) Total RNA was extracted from cultured cells using Trizol reagent (Life Technologies, Inc. Gaithersburg, Md.) according to the manufacturer's protocol. Extracted RNAs were treated with DNase I (Nippon Gene, Tokyo, Japan) and reversely-transcribed using oligo (dT) primer and SuperScript II. The primer sets for amplification were as follows:
# (§2) Small interfering RNA (siRNA) duplexes (Dharmacon, Inc., Lafayette, Colo.) (600 pM) were transfected into lung-cancer cell lines LC319 and A549 for CDCA5; NCI-H520 and SBC-5 for EPHA7; LC319 for WDHD1, and esophageal cancer cell line TE9 for WDHD1 using 30 μl of Lipofectamine 2000 (Invitrogen, Carlsbad, Calif.) following the manufacturer's protocol. The transfected cells were cultured for 7 days, and the number of colonies was counted by Giemsa staining, and viability of cells was evaluated by 3-(4,5-dimethylthiazol-2-yl)-2,5-diphenyltetrazolium bromide (MTT) assay (cell counting kit-8 solution; Dojindo Laboratories, Kumanoto, Japan), at 7 days after transfection. To confirm suppression of gene expression, semiquantitative RT-PCR was carried out with synthesized primers described above.
# NCI-H520 cells = experiment: RNA interference assay (oligo based): colony formation and MTT assays; assay type: cell-based, human; conditions: 7 days after transfection
# Protocol: as §2
# SBC-5 cells = experiment: as above; assay type: cell-based, human; conditions: 7 days after transfection
# Protocol: as §2
# CDCA5 [2] = experiment: RNA interference assay: CDCA5 expression by semiquantitative RT-PCR; assay type: cell-based, human; conditions: A549 and LC319 cells; compared with control siRNA (si-LUC and si-CNT)
# Protocol: as §1, §2
# LC319 cells = experiment: RNA interference assay (vector based): colony formation and MTT assays; assay type: cell-based, human; conditions: P<0.001; 7 days with G418
# Protocol: (§3) The present inventors had established previously a vector-based RNAi system, psiH1BX3.0, which was designed to synthesize small interfering RNAs (siRNA) in mammalian cells (Suzuki C, et al., Cancer Res. 2003 Nov. 1; 63(21): 7038-41). Ten micrograms of siRNA expression vector were transfected using 30 μL Lipofectamine 2000 (Invitrogen) into lung cancer cell lines, LC319 and NCI-H2170. The transfected cells were cultured for 7 days in the presence of appropriate concentrations of geneticin (G418), and the number of colonies was counted by Giemsa staining, and viability of cells was evaluated by 3-(4,5-dimethylthiazol-2-yl)-2,5-diphenyltetrazolium bromide (MTT) assay (cell counting kit-8 solution; Dojindo, Kumamoto, Japan), at 7 days after the G418 treatment. To confirm suppression of STK31 protein expression, Western blotting was carried out with affinity-purified polyclonal antibody to STK31 according to the standard protocol. The target sequences of the synthetic oligonucleotides for RNAi were as follows: […]
# STK31 = experiment: RNA interference assay (vector based): STK31 knockdown by RT-PCR; assay type: cell-based, human; conditions: LC319 cells; controls si-EGFP and si-LUC
# Protocol: as §1, §3
# EPHA7 [3] = biological target: T1, EPHA7 (Homo sapiens, UniProt Q15375); experiment: In vitro EPHA7 kinase assay: EPHA7 autophosphorylation; assay type: biochemical; conditions: at the minimum concentration inhibiting EGFR or MET autophosphorylation (assay used 1 mM AG1478, 12.5 μM SU11274)
# T1 construct: in vitro kinase assay using active recombinant proteins of cytoplasmic EPHA7, MET, EGFR; purchased Carnabioscience, Kobe, Japan
# T1 sequence (Q15375 577-998 limits assumed): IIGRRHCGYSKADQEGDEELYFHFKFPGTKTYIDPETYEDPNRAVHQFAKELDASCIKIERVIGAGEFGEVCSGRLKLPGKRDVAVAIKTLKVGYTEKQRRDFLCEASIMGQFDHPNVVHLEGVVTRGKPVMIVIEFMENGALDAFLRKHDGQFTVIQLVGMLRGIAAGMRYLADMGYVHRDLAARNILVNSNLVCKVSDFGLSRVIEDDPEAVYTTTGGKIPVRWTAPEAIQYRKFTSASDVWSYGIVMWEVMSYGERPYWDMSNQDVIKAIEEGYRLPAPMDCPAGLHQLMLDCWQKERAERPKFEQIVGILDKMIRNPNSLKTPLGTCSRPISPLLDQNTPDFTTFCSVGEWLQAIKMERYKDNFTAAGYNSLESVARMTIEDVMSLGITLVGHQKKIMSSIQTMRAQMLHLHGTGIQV
# Protocol: Active recombinant EPHA7 (Carnabioscience, Kobe, Japan), EGFR (Millipore, Billerica, Mass.), MET (Millipore), EGFR inhibitor AG1478 (EMD), and MET inhibitor SU11274 were commercially purchased. We constructed plasmids expressing partial fragments of EGFR (#1: codons 692-891, #2: codons 889-1045, #3: codons 1046-1186) that contained GST-tagged epitopes at their N-terminals were prepared using pGEX vector (GE Healthcare Bio-sciences). The recombinant peptides were expressed in Escherichia coli, BL21 codon-plus strain (Stratagene, La Jolla, Calif.), and purified using TALON resin (BD Biosciences Clontech) according to the supplier's protocol. The purified proteins were extracted on an SDS-PAGE gel. […] ATP (GE Healthcare Bio-sciences). After incubation at 30 degrees C. for 30 minutes the reactions were terminated by addition of SDS sample buffer. After boiling, the protein samples were electrophoresed on 5% to 15% gradient gel (Bio-Rad), and then signals were visualized by Molecular imager FX (Bio-Rad). In EPHA7 kinase assay using MET as substrate, we adopted the same protocol as above mentioned EPHA7-EGFR kinase reaction, using 50 ng of MET and 12.5 μM of SU11274 (MET inhibitor; see above), instead of EGFR and AG1478. […] ATP, and detected phosphorylated proteins using anti-pan phospho-tyrosine antibody (Invitrogen).
# ERK = conditions: serum-starved Hela cells, EGF stimulation with 10 μM U0126
# Protocol: (§4) Cultured A549 and LC319 lung cancer cells as well as cervical squamous cell carcinoma Hela cells were synchronized in G1/S phase by 2 μg/ml aphidilcoline for 16 hours incubation. For mitosis synchronization, the cells were released at 0 hour from G1/S phase. Nocodazole was added at 5 hours to prevent mitotic exit. At the point, CDC2 inhibitors or PBS were added to the cell cultures. For the EGF stimulation assay, Hela cells were cultured in FBS free medium for 20 hours. Then, the cells were stimulated by […] EGF for 30 min with or without 10 μM MEK inhibitor U0126 (Promega)
# CDCA5 [4] = test system: CDCA5
# Protocol: as §4
# CDCA5 [5] = experiment: CDC2-dependent phosphorylation of CDCA5 in mitosis, western blotting; assay type: cell-based
# Protocol: To determine whether endogenous CDCA5 phosphorylation in mitosis was CDC2-dependent, we further treated the lung cancer cells at 5 hours after release from G1/S phase with nocodazole alone or both nocodazole and CDC2 inhibitor CGP74514A, and measured the status of CDCA5 phosphorylation by western blotting. Mitotic cells treated with nocodazole alone gradually expressed phosphorylated CDCA5 (shifted bands) (FIG. 19B).
# WDHD1 = experiment: RNA interference assay: WDHD1 knockdown by RT-PCR; assay type: cell-based, human; conditions: A549, LC319 and TE9 cells
# Protocol: as §1, §2
# NSCLC = conditions: cited from earlier work
compound,measurement,setting,value
5′-UAGCAAAGCUGACCAAGAA-3′ [si-EPHA7-#2],EPHA7 mRNA levels / EPHA7 expression,EPHA7 [1],significantly decreased
same,"number of colonies and viable cells (MTT), NCI-H520 cells, siRNA against EPHA7",NCI-H520 cells,significant decreases in the number of colonies formed and in the numbers of viable cells
same,"number of colonies and viable cells (MTT), SBC-5 cells, siRNA against EPHA7",SBC-5 cells,significant decreases in the number of colonies formed and in the numbers of viable cells
5′-GCAGUUUGAUCUCCUGGUUU-3′ [si-CDCA5-#1],expression of CDCA5,CDCA5 [2],significantly suppressed expression of CDCA5
5′-GGGCTATTCTGTGGATGTT-3′ [si-STK31-#2],"number of LC319 cells (MTT and colony-formation assays), siRNA against STK31",LC319 cells,drastic reduction in the number of cells
same,STK31 knockdown effect (RT-PCR),STK31,knockdown effect was confirmed
5′-GCCAGAGACUUGGAAAUGU UU-3′ [si-CDCA5-#2],expression of CDCA5,CDCA5 [2],significantly suppressed expression of CDCA5
5′-AAAAGAGAUGUUGCAGUA-3′ [si-EPHA7-#1],EPHA7 mRNA levels / EPHA7 expression,EPHA7 [1],weak reduction of EPHA7 expression
same,"number of colonies and viable cells (MTT), NCI-H520 cells, siRNA against EPHA7",NCI-H520 cells,slight decreases in colony numbers and cell viability
same,"number of colonies and viable cells (MTT), SBC-5 cells, siRNA against EPHA7",SBC-5 cells,slight decreases in colony numbers and cell viability
COc1cc2ncnc(Nc3cccc(Cl)c3)c2cc1OC [AG1478],EPHA7 autophosphorylation,EPHA7 [3],did not inhibit EPHA7 autophosphorylation
N#CC(=C(/N)Sc1ccccc1N)/C(C#N)=C(\N)Sc1ccccc1N [U0126],levels of ERK phosphorylation,ERK,reduced the levels of ERK phosphorylation
same,"signal of spot no. 2 of myc-tagged CDCA5, 2D-western-blotting","CDCA5 [4]; Hela cells, EGF, U0126 treatment",reduced
same,"shifted spots with more acidic pI (spots no. 3 and 4) of myc-tagged CDCA5, 2D-western-blotting","CDCA5 [4]; Hela cells, EGF, pre-incubation with U0126",significantly reduced
same,upper shift of CDCA5 band (endogenous CDCA5 phosphorylation),"CDCA5 [4]; serum-starved Hela cells, EGF stimulation with 10 μM U0126",completely inhibited the upper shift of CDCA5 band
5′-GGAGATAGCTCTGGTTGAT-3′ [si-STK31-#1],"number of LC319 cells (MTT and colony-formation assays), siRNA against STK31",LC319 cells,drastic reduction in the number of cells
same,STK31 knockdown effect (RT-PCR),STK31,knockdown effect was confirmed
O=C1Cc2c([nH]c3ccc([N+](=O)[O-])cc23)-c2ccccc2N1 [alsterpaullone],CDC2-inhibitory activity relative to CGP74514A,CDCA5 [5],lower compared with the other CDC2 inhibitor CGP74514A
same,CDCA5 phosphorylation in mitosis,"CDCA5 [5]; 4 μM, with nocodazole 5 hours after release from G1/S phase",could strictly inhibit CDCA5 phosphorylation
"5′-GAUCAGACAUGUGCUAUUA UU-3′ (GAUCAGACAUGUGCUAUUAUU; listed as RNA, chemistry not given here) [si-WDHD1-#1]",WDHD1 knockdown effect (RT-PCR),WDHD1,knockdown effect was confirmed
C#Cc1cccc(Nc2ncnc3cc(OCCOC)c(OCCOC)cc23)c1 [erlotinib],median survival,"NSCLC; NSCLC patients, placebo 4.7 months (Shepherd et al. 2005)",6.7 months
Cc1[nH]c(/C=C2\C(=O)Nc3ccc(S(=O)(=O)N(C)c4cccc(Cl)c4)cc32)c(C)c1C(=O)N1CCN(C)CC1 [SU11274],EPHA7 autophosphorylation,EPHA7 [3],did not inhibit EPHA7 autophosphorylation
CCn1cnc2c(Nc3cccc(Cl)c3)nc(N[C@@H]3CCCC[C@@H]3N)nc21 [CGP74514A],CDCA5 phosphorylation in mitosis (upper shifted bands),CDCA5 [5]; added with nocodazole 5 hours after release from G1/S phase,showed no upper shifted bands indicating that CDCA5 phosphorylation in mitosis was significantly inhibited
same,stability of CDCA5 protein,CDCA5 [5]; cells treated with CDC2 inhibitor (FIG. 19C),seems to be unstable
COc1cc2ncnc(Nc3ccc(F)c(Cl)c3)c2cc1OCCCN1CCOCC1 [gefitinib],clinical outcome,NSCLC; NSCLC (Giaccone 2004; Baselga 2004),superior response rate and symptom control
